# Results reported in patent US12630498B2 (Genzyme Corporation, priority 2019, dated 2026).
# What was measured:
# [1] = target: T1, CFTR-mediated transepithelial chloride transport in primary human bronchial epithelial cells from a ΔF508 homozygous CF donor (Homo sapiens, UniProt P13569, DEL508-508); assay: TECC24 recording of CFTR-mediated transepithelial chloride transport in CF-HBE cells (AUC fold over DMSO); assay type: cell-based; conditions: test agent 10 μM, 48 hours incubation, AUC of forskolin-stimulated IEQ relative to DMSO
# T1 construct: Primary human bronchial epithelial cells from a ΔF508 homozygous CF donor; host or cells: primary CF-HBE cells, ΔF508 homozygous donor
# T1 sequence (P13569 with tags, fused parts or gaps DEL508-508): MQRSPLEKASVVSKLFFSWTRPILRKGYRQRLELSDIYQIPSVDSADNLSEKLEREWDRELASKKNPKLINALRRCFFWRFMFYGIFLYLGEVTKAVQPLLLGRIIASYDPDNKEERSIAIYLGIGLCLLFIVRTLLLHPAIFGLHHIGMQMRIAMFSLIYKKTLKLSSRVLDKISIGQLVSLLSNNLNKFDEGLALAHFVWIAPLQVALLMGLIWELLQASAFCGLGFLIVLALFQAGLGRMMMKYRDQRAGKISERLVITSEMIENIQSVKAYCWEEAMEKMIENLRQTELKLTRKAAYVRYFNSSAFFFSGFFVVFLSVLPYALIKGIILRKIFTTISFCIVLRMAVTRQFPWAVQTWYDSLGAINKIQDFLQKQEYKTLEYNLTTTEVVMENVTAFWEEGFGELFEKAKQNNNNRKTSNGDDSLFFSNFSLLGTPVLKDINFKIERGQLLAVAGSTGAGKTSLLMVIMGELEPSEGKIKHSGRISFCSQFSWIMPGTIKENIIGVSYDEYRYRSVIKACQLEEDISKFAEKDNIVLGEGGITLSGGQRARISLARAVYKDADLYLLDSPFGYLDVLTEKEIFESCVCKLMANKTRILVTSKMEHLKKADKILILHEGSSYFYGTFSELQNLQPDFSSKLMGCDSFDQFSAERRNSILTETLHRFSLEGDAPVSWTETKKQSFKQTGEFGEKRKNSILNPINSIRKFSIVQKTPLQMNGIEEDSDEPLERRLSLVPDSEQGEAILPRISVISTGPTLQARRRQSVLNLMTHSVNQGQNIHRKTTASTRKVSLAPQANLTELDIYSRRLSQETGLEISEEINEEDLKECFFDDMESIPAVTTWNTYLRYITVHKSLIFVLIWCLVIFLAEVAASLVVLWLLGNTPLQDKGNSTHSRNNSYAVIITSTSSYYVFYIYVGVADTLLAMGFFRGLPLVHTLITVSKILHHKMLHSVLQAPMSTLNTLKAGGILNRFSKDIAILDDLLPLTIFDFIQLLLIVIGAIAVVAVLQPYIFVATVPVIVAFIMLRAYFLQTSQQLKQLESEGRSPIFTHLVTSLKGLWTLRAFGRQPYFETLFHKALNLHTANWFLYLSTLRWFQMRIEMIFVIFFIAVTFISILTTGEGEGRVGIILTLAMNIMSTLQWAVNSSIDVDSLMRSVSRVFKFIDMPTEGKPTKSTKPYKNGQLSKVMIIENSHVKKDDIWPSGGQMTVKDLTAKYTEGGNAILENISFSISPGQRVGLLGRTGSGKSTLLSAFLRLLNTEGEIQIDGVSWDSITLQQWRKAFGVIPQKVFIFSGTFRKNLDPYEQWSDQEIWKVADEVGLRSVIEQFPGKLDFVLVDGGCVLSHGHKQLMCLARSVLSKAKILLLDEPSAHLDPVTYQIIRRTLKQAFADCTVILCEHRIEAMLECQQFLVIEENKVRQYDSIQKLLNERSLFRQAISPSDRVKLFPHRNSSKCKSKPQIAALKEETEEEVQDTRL
# Procedure, shortened: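 Primary ΔF508/ΔF508 CF-HBE cells on inserts exposed to test agent in IL-13-containing medium for 48 h at 36.5 °C. Current-clamp VT/TEER recording in pH 7.4 HEPES saline with benzamil 10 μM, forskolin 10 μM, then CFTRinh-172 20 μM. AUC of equivalent Cl⁻ current between forskolin and inhibitor, expressed as ratio over vehicle.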
# [2] = target: T2, human Cystic Fibrosis Transmembrane Conductance Regulator (CFTR) harboring the ΔF508 mutation (Homo sapiens, UniProt P13569, DEL508-508); assay: H441 cell ΔF508-CFTR-HRP cell surface assay (Emax and EC50); assay type: cell-based; conditions: for Emax: NCI-H441, NA = Not active
# T2 construct: expressed in transfected cells; host or cells: H441 carcinoma line (G418-selected)
# T2 sequence (P13569 with tags, fused parts or gaps DEL508-508): as above
# Procedure, shortened: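 H441 and 41o- bronchial epithelial cells expressing ΔF508-CFTR with an extracellular-loop-4 HRP tag were treated with a 15-point compound series (24.5–0.001 μM) for two nights, H441 at 27° C, 41o- at 37° C with 0.0005 mg/ml doxycycline. Surface HRP luminescence read; % of maximum VX809 signal and EC50 derived.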
Compound,TECC24 AUC fold over DMSO @10 μM [1],EC50 [2],Emax [2]
"CCC1([C@H](NC(=O)c2ccc3ccc(F)cc3c2OCc2ccc(OC(F)(F)F)cc2)C(=O)O)CCCC1 [Example 313, (S)-2-(1-ethylcyclopentyl)-2-(7-fluoro-1-((4-(trifluoromethoxy)benzyl)oxy)-2-naphthamido)acetic Acid]",A (“A” refers to AUC @10 uM >6),300 nM,152%
"O=C(N[C@H](C(=O)O)C12CC(C(F)(F)F)(C1)C2)c1ccc2ccccc2c1OCc1ccc(C(F)(F)F)cc1 [Example 13, (S)-2-(1-((4-(trifluoromethyl)benzyl)oxy)-2-naphthamido)-2-(3-(trifluoromethyl)bicyclo[1.1.1]pentan-1-yl)acetic Acid]",C (“C” refers to AUC @10 uM <4),1200 nM,81.3%
"CC(C)(C)[C@H](NC(=O)c1ccc2ccccc2c1OCc1ccc(S(F)(F)(F)(F)F)cc1)C(=O)O [Example 67, (S)-3,3-dimethyl-2-(1-((4-(pentafluoro-l6-sulfanyl)benzyl)oxy)-2-naphthamido)butanoic Acid]",A (“A” refers to AUC @10 uM >6),800 nM,112%
"CC(C)(C)C[C@H](NC(=O)c1ccc2ccccc2c1OCc1ccc(C(F)(F)F)cc1)C(=O)O [Example 141, (S)-4,4-dimethyl-2-(1-((4-(trifluoromethyl)benzyl)oxy)-2-naphthamido)pentanoic Acid]",A (“A” refers to AUC @10 uM >6),2300 nM,147%
"CC1(C(NC(=O)c2ccc3ccccc3c2OCc2ccc(SC(F)(F)F)cc2)C(=O)O)CCCCC1 (stereo not drawn) [Example 36, 2-(1-methylcyclohexyl)-2-(1-((4-((trifluoromethyl)thio)benzyl)oxy)-2-naphthamido)acetic Acid]",B (“B” refers to AUC @10 uM between 4-6),700 nM,133%
"CC(C)(C)[C@H](NC(=O)c1cc(Br)c2ccccc2c1OCc1ccc(C(F)(F)F)cc1)C(=O)O [Example 51, (S)-2-(4-bromo-1-((4-(trifluoromethyl)benzyl)oxy)-2-naphthamido)-3,3-dimethylbutanoic Acid]",C (“C” refers to AUC @10 uM <4),400 nM,200%
"CCCC(C)(C)[C@H](NC(=O)c1ccc2ccc(Cl)cc2c1OCc1ccc(C(F)(F)F)cc1)C(=O)O [Example 306, (S)-2-(7-chloro-1-((4-(trifluoromethyl)benzyl)oxy)-2-naphthamido)-3,3-dimethylhexanoic Acid]",A (“A” refers to AUC @10 uM >6),100 nM,417%
"Cc1cc(F)c2ccc(C(=O)N[C@H](C(=O)O)C(C)(C)C)c(OCc3ccc(C(F)(F)F)cc3)c2c1 [Example 263, (2S)-2-[[5-fluoro-7-methyl-1-[[4-(trifluoromethyl)phenyl]methoxy]naphthalene-2-carbonyl]amino]-3,3-dimethyl-butanoic Acid]",A (“A” refers to AUC @10 uM >6),100 nM,250%
"CC(c1ccccc1)C(NC(=O)c1ccc2ccccc2c1OCc1ccc(C(F)(F)F)cc1)C(=O)O (stereo not drawn) [Example 127, 3-phenyl-2-(1-((4-(trifluoromethyl)benzyl)oxy)-2-naphthamido)butanoic Acid]",C (“C” refers to AUC @10 uM <4),1100 nM,98.5%
"CC(C)(C)[C@H](NC(=O)c1ccc2ccc(-c3cscn3)cc2c1OCc1ccc(C(F)(F)F)cc1)C(=O)O [Example 243, (2S)-3,3-dimethyl-2-[[7-thiazol-4-yl-1-[[4-(trifluoromethyl)phenyl]methoxy]naphthalene-2-carbonyl]amino]butanoic Acid]",A (“A” refers to AUC @10 uM >6),500 nM,159%
"CC(C)(C)[C@H](NC(=O)c1ccc2cc(F)ccc2c1OCc1ccc(OC(F)(F)F)cc1)C(=O)O [Example 19, (S)-2-(6-fluoro-1-((4-(trifluoromethoxy)benzyl)oxy)-2-naphthamido)-3,3-dimethylbutanoic Acid]",C (“C” refers to AUC @10 uM <4),21900 nM,48.3%
O=C(N[C@H](C(=O)O)C(c1ccccc1)c1ccccc1)c1ccc2cc(F)ccc2c1OCc1ccc(C(F)(F)F)cc1 [Example 196],C (“C” refers to AUC @10 uM <4),300 nM,101%
C[C@@H](OCc1ccccc1)[C@H](NC(=O)c1ccc2cc(F)ccc2c1OCC1CCCCC1)C(=O)O (stereo in doubt) [Example 202],C (“C” refers to AUC @10 uM <4),4100 nM,112%
"Cc1ccc2ccc(C(=O)N[C@H](C(=O)O)C(C)(C)CF)c(OCC3CCCCC3)c2c1 [Example 282, (S)-2-(1-(cyclohexylmethoxy)-7-methyl-2-naphthamido)-4-fluoro-3,3-dimethylbutanoic Acid]",A (“A” refers to AUC @10 uM >6),700 nM,285%
"O=C(N[C@H](C(=O)O)C(c1ccccc1)c1ccccc1)c1ccc2ccccc2c1OCc1ccc(C(F)(F)C(F)(F)F)cc1 [Example 131, (S)-2-(1-((4-(perfluoroethyl)benzyl)oxy)-2-naphthamido)-3,3-diphenylpropanoic Acid]",C (“C” refers to AUC @10 uM <4),100 nM,204%
"CC(C)(C)[C@H](NC(=O)c1ccc2ccccc2c1OCc1ccc(C(F)(F)C(F)(F)F)cc1)C(=O)O [Example 37, (S)-3,3-dimethyl-2-(1-((4-(perfluoroethyl)benzyl)oxy)-2-naphthamido)butanoic Acid]",C (“C” refers to AUC @10 uM <4),300 nM,195%
"CC(C)(C)[C@@H](NC(=O)c1ccc2ccc(C(F)F)cc2c1OCc1ccc(C(F)(F)F)cc1)C(=O)O [Example 265, (2R)-2-[[7-(difluoromethyl)-1-[[4-(trifluoromethyl)phenyl]methoxy]naphthalene-2-carbonyl]amino]-3,3-dimethyl-butanoic Acid]",C (“C” refers to AUC @10 uM <4),600 nM,96.2%
"O=C(N[C@H](C(=O)O)C(c1ccccc1)c1ccccc1)c1ccc2ccccc2c1OCC1CCCCC1 [Example 199, (S)-2-(1-(cyclohexylmethoxy)-2-naphthamido)-3,3-diphenylpropanoic Acid]",C (“C” refers to AUC @10 uM <4),500 nM,129%
"CC(C)(C)C[C@H](NC(=O)c1ccc2ccccc2c1OCC1CCCCC1)C(=O)O [Example 201, (S)-2-(1-(cyclohexylmethoxy)-2-naphthamido)-4,4-dimethylpentanoic Acid]",C (“C” refers to AUC @10 uM <4),4100 nM,135%
"CCC(C)(C)[C@H](NC(=O)c1ccc2ccc(C(F)F)cc2c1OCc1ccc(C(F)(F)F)cc1)C(=O)O [Example 242, (2S)-2-[[7-(difluoromethyl)-1-[[4-(trifluoromethyl)phenyl]methoxy]naphthalene-2-carbonyl]amino]-3,3-dimethyl-pentanoic Acid]",A (“A” refers to AUC @10 uM >6),100 nM,368%
"O=C(N[C@H](C(=O)O)[C@H](O)c1ccccc1)c1ccc2ccccc2c1OCc1ccc(C(F)(F)F)cc1 [Example 129, (2S,3R)-3-hydroxy-3-phenyl-2-(1-((4-(trifluoromethyl)benzyl)oxy)-2-naphthamido)propanoic Acid]",C (“C” refers to AUC @10 uM <4),12000 nM,29.4%
"CCC(C)(C)[C@H](NC(=O)c1ccc2ccc(OC)cc2c1OCc1ccc(OC(F)(F)F)cc1)C(=O)O [Example 311, (S)-2-(7-methoxy-1-((4-(trifluoromethoxy)benzyl)oxy)-2-naphthamido)-3,3-dimethylpentanoic Acid]",A (“A” refers to AUC @10 uM >6),500 nM,345%
"CC1(C(NC(=O)c2ccc3cc(F)ccc3c2OCc2ccc(SC(F)(F)F)cc2)C(=O)O)CCCCC1 (stereo not drawn) [Example 69, 2-(6-fluoro-1-((4-((trifluoromethyl)thio)benzyl)oxy)-2-naphthamido)-2-(1-methylcyclohexyl)acetic Acid]",C (“C” refers to AUC @10 uM <4),400 nM,57.7%
"CC(C)(C)[C@H](NC(=O)c1ccc2ccc(C#N)cc2c1OCc1ccc(OC(F)(F)F)cc1)C(=O)O [Example 254, (2S)-2-[[7-cyano-1-[[4-(trifluoromethoxy)phenyl]methoxy]naphthalene-2-carbonyl]amino]-3,3-dimethyl-butanoic Acid]",A (“A” refers to AUC @10 uM >6),700 nM,176%
"CC(C)(C)[C@H](NC(=O)c1ccc2ccccc2c1OCc1ccc(S(=O)(=O)C(F)(F)F)cc1)C(=O)O [Example 57, (S)-3,3-dimethyl-2-(1-((4-((trifluoromethyl)sulfonyl)benzyl)oxy)-2-naphthamido)butanoic Acid]",C (“C” refers to AUC @10 uM <4),1500 nM,87.9%
